Reference: US7449463B2, “Morpholinyl containing benzimidazoles as inhibitors of respiratory syncytial virus replication” (Tibotec Pharmaceuticals Ltd., priority 2003, dated 2008)
pEC50: −log10 of the molar value.

Experiments:
[1] = system: Respiratory Syncytial Virus; assay: microbe, parasite or virus in culture; format: cell-based; details: human respiratory syncytial virus; pEC50 (−log of EC50 when expressed in molar units), protection against RSV cytopathology
In short: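 HeLa cells infected with ~100 TCID50 RSV in Eagle's Basal Medium with 5% FCS, five-fold compound dilutions, 37° C, 5% CO2 for 7 days. Viability by MTT (A540 minus A690); EC50 for protection against cytopathic effect and CC50 from mock-infected wells, SI = CC50/EC50.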

SMILES | pEC50 [1] | melting point [°C]
COc1ccc(C)nc1Cn1c(NCCCN2CCOCC2)nc2ccc(CNc3cc(C)ccc3CCCO)cc21 [Compound 219, 3-(2-{[3-(3-Methoxy-6-methyl-pyridin-2-ylmethyl)-2-(3-morpholin-4-yl-propylamino)-3H-benzoimidazol-5-ylmethyl]-amino}-4-methyl-phenyl)-propan-1-ol] | 8.60 | 132
Cc1cc(C)cc(N(CCCC(N)=O)Cc2ccc3nc(NCCCN4CCOCC4)n(Cc4cccc5cccnc45)c3c2)c1 [Compound 223, 4-{(3,5-Dimethyl-phenyl)-[2-(3-morpholin-4-yl-propylamino)-3-quinolin-8-ylmethyl-3H-benzoimidazol-5-ylmethyl]-amino}-butyramide] | 8.50 | 154
Cc1cc(C)cc(N(CCCC(N)=O)Cc2ccc3nc(NCCCN4CCOCC4)n(Cc4cccc5c4ncn5C)c3c2)c1 [Compound 230, 4-{(3,5-Dimethyl-phenyl)-[3-(1-methyl-1H-benzoimidazol-4-ylmethyl)-2-(3-morpholin-4-yl-propylamino)-3H-benzoimidazol-5-ylmethyl]-amino}-butyramide] | 8.40 | 206
Cc1cc(C)cc(N(CCO)Cc2ccc3nc(NCCCN4CCOCC4)n(Cc4nc(C)c(C)nc4C)c3c2)c1 [Compound 233, 2-{(3,5-Dimethyl-phenyl)-[2-(3-morpholin-4-yl-propylamino)-3-(3,5,6-trimethyl-pyrazin-2-ylmethyl)-3H-benzoimidazol-5-ylmethyl]-amino}-ethanol] | 8.30 | 140
Cc1ccc(CCCO)c(NCc2ccc3nc(NCCCN4CCOCC4)n(Cc4cccc5cccnc45)c3c2)c1 [Compound 234, 3-(4-Methyl-2-{[2-(3-morpholin-4-yl-propylamino)-3-quinolin-8-ylmethyl-3H-benzoimidazol-5-ylmethyl]-amino}-phenyl)-propan-1-ol] | 8.30 | 165
Cc1ccc(CCCO)c(NCc2ccc3nc(NCCCN4CCOCC4)n(Cc4nc(C)c(C)nc4C)c3c2)c1 [Compound 255, 3-(4-Methyl-2-{[2-(3-morpholin-4-yl-propylamino)-3-(3,5,6-trimethyl-pyrazin-2-ylmethyl)-3H-benzoimidazol-5-ylmethyl]-amino}-phenyl)-propan-1-ol] | 7.60 | 120
Cc1cc(C)cc(N(CCCC(N)=O)Cc2ccc3nc(NCCCN4CCOCC4)n(Cc4cccc(Br)n4)c3c2)c1 [Compound 261, 4-[[3-(6-Bromo-pyridin-2-ylmethyl)-2-(3-morpholin-4-yl-propyl-amino)-3H-benzoimidazol-5-ylmethyl]-(3,5-dimethyl-phenyl)-amino]-butyramide] | 7.50 | 82
Cc1ccc(CCCO)c(NCc2ccc3nc(NCCCN4CCOCC4)n(Cc4cccc(Br)n4)c3c2)c1 [Compound 267, 3-(2-{[3-(6-Bromo-pyridin-2-ylmethyl)-2-(3-morpholin-4-yl-propylamino)-3H-benzoimidazol-5-ylmethyl]-amino}-4-methyl-phenyl)-propan-1-ol] | 7.30 | 141
